Source: patent publication US6613317B1, “Volatile attractants for diabrotica species” (priority 1988, dated 2003)
Marks after values point to notes of the source that are not given here.

Key:
[1] = test system: northern corn rootworm (NCR); assay: Sticky trap attraction in corn, phenylethanol analogues (Example 6); type: in vivo, Diabrotica barberi; details: four replicates; for Mean number of NCR per trap (± standard deviation): Table 20, 100 mg per trap, 24 hour
Description: (§1) Test chemicals (purchased from Aldrich Chemical Co.; Milwaukee, Wis.) were applied by capillary micropipettes to cotton dental wicks that were attached to tops of 1.0 liter cylindrical paper cartons covered with TangleTrap™, Grand Rapids, Mich. The trapping techniques used were as previously described in Example 1. Unless otherwise indicated, all treatments were made at a dosage of 100 mg or 100 μL of attractant per trap. Control traps had untreated wicks. Four replicates of treated and untreated traps were positioned randomly 10 meters apart on top of 1 m high posts along the edges of 25-50 ha. fields of hybrid corn (Zea mays), infested with adult NCR, SCR, and WCR beetles. Several experiments detailed in the Tables were made in a 0.4 ha plot of sweet corn (Illini X-tra Sweet).
(§2) Attraction of Diabrotica species adults of the sticky traps was measured by the mean number of beetles caught after 1 day (ca. 24 hours) exposure. The significance of the treatments was determined by analysis of variance and the individual means were separated by Duncan's multiple range test (Statistical Package for the Social Sciences, Nie, et al., 2nd. ed. McGraw-Hill, New York (1975). The data was logarithmically transformed for statistical analysis. Means and standard deviations are presented for the untransformed data. Significance levels were set at P=0.05 for all statistical analyses.

[2] = test system: western corn rootworm (WCR) adults; assay: Sticky trap attraction in sweet corn plots (Example 1); type: in vivo, Diabrotica virgifera virgifera; details: August first year, single compounds 100 mg per trap
Description: (§3) The attraction of Diabrotica species to single-component and multicomponent lures was evaluated in corn fields. The field experiments on attraction of SCR and WCR adults were conducted in 0.405-ha (1-acre) plots of “Illini Xtra Sweet” corn grown on the University of Illinois South Farms at Urbana, Ill., over a two year period. Most of the tests were conducted in August to correspond with the peak silk-feeding and oviposition periods of corn rootworm adults in central Illinois. In both years, the sweet corn plot was adjacent to a 0.405-ha trap crop of C. maxima cultivar “Blue Hubbard”, to provide high densitites of SCR and WCR adults in the corn plots (Howe, et al., Environ. Entomol., 5:745-751 (1976), Lampman, et al., J. Chem. Ecol., 13:959-975 (1987).
(§4) Attraction of Diabrotica species to volatile compounds was measured by the average number of beetles cought during a 24-h period on 1.0-liter cylindrical paper cartons (15.2 cm high, 27.9 cm circumference) which were evenly coated with clear insect adhesive, TangleTrap™ (Tanglefood Co., Grand Rapids, Mich.) The candidate attractants were applied by capillary micropiettes to cotton dental wicks (13 mm long by 6 mm diameter) that were previously impregnated with mineral oil to prolong volatilization. The chemicals were purchased from Aldrich Chemical Co., (Milwaukee, Wis.) and assayed by gas chromatography as >97% pure. Indole, a solid at ambient temperatures (m.p. 52-54° C.), was dissolved in glass-distilled acetone before dosing the cotton wicks. For dosage-acticity tests, the various components were mixed in equal quantities by weight and diluted to the appropriate dosage with acetone. Treated and untreated (control) wicks were attached to the top of the paper cartons with TangleTrap™ and the inverted traps were placed on 1-m-high posts between the sweet corn rows. Four replicates of each treatment and a control were conducted in a randomized complete block desgin. The sticky traps within a block (ca. 50-m row of corn) were 5-10 m apart (depending on the number of treatments in a particular test) and the blocks were 3 m apart. The traps were baited and placed in the field between 1000 and 1300 hours and beetle counts were taken after 24 h. The significance of treatments was determined by analysis of variance and the individual means were separated by Duncan's multiple range test (Statistical Package for Social Sciences (SPSS) (Nie, et al., SPSS: statistical package for the social sciences, 2nd ed. McGraw-Hill, N.Y. (1975)). Student's t test was used for comparisons of two means (Sokal, et al., Biometry, Freeman, San Francisco (1969). Significance levels were set at P=0.05 at all statistical analyses.
(§5) The initial field test in August of the first year evaluated the response of SCR and WCR adults of a mixture of veratrole (V), indole (I), phenylacetaldehyde (P), trans-anethole (A), and eugenol (E) (=VIPAE mixture), as well as to the individual components. Each component in the VIPAE mixture was present at a dosage of 20 mg per trap and was compared with the individual components at 100 mg per trap. The response of SCR and WCR adults to a range of VIPAE doses, 1-300 mg, was conducted on the following day. Fifty SCR adults were removed from each 100-mg VIPAE trap, and returned to the laboratory for sex determination. Additional analyses in August evaluated the reduction in trap catches produced by the sequential removal of the individual components from the VIPAE lure. After the primary components of the initial lure were determined, a modified multicomponent lure consisting of veratrole, indole, and phenylacetaldehyde (=VIP mixture) was compared with its individual components to determine whether the attraction of SCR adults was the result of interactive or additive factors. The attraction and synergistic response of SCR adults of the VIP mixture was verified by tests conducted in August of the following year. […]

[3] = test system: western corn rootworm (WCR) adults; assay: Sticky trap attraction in corn, estragole analogues (Example 3); type: in vivo, Diabrotica virgifera virgifera; details: 100 mg per trap; for Mean number of WCR per sticky trap (±standard deviation) after 24 hours / Mean number of WCR adults per sticky trap (±standard deviation) after 24 hours: n = 4
Description: as §1, with “chemicals” for “chemicals (purchased from Aldrich Chemical Co.; Milwaukee, Wis.)”, “Cinnamyl alcohol, 4-methoxycinnamaldehyde, cinnamyl acetate, and 4-(4′methoxyphenyl)-3-butene-2-one which are solids at ambient temperature were prepared as standard w/v solutions in acetone prior to dosing the cotton wicks. All” for “Unless otherwise indicated, all”
as §2

[4] = test system: southern corn rootworm (SCR) adults; assay: Sticky trap attraction in sweet corn plots (Example 1); type: in vivo, Diabrotica undecimpunctata howardi; details: August first year, single compounds 100 mg per trap
Description: as §3, §4, §5

[5] = test system: southern corn rootworm (SCR) adults; assay: Sticky trap attraction in corn, estragole analogues (Example 3); type: in vivo, Diabrotica undecimpunctata howardi; details: 100 mg per trap, n = 4
Description: as §1, with “chemicals” for “chemicals (purchased from Aldrich Chemical Co.; Milwaukee, Wis.)”, “Cinnamyl alcohol, 4-methoxycinnamaldehyde, cinnamyl acetate, and 4-(4′methoxyphenyl)-3-butene-2-one which are solids at ambient temperature were prepared as standard w/v solutions in acetone prior to dosing the cotton wicks. All” for “Unless otherwise indicated, all”
as §2

[6] = South Farms, 24 h, mixture 20 mg of each component, n = 4

COc1ccc(CCN)cc1 [4-methoxyphenylethylamine]
Mean number of NCR per trap (± standard deviation) [1]: 24.2 ± 15.4a per trap

CC=Cc1cccc(OC)c1 [II, 4-methoxy-2-propenylbenzene]
Mean number of WCR per trap (±standard deviation) [2, 6]: 9.0 ± 4.3 per trap
relative percent activity of the mean WCR trap catch as compared with the highest mean value in the column ([2]; mixture 20 mg each component): 100%
Relative percent activity as compared with the highest mean in the column (WCR) ([3]; July 30): 58%
Mean number of WCR per sticky trap (±standard deviation) after 24 hours ([3]; July 30): 48.0 ± 23.3 per sticky trap
Mean number of SCR per trap (±standard deviation) [4, 6]: 1.5 ± 1.0 per trap
relative percent activity of the mean SCR trap catch as compared with the highest mean value in the column ([4]; mixture 20 mg each component): 7%

C=Cc1ccc(OC)cc1 [III, 4-methoxy-1-vinyl benzene]
Relative percent activity as compared with the highest mean in the column (WCR) ([3]; August 29): 15%
Mean number of WCR per sticky trap (±standard deviation) after 24 hours ([3]; August 29): 21.5 ± 6.5 per sticky trap
Relative percent activity as compared with the highest mean in the column (WCR) ([3]; July 30): 40%
Mean number of WCR per sticky trap (±standard deviation) after 24 hours ([3]; July 30): 32.2 ± 13.5 per sticky trap

CCCc1ccc(OC)cc1 [IV, 4-methoxy-1-propylbenzene]
Relative percent activity as compared with the highest mean in the column (WCR) ([3]; July 30): 37%
Mean number of WCR per sticky trap (±standard deviation) after 24 hours ([3]; July 30): 30.5 ± 11.0 per sticky trap

COc1ccc(C=CC#N)cc1 [IX, 4-methoxycinnamonitrile]
Mean number of SCR adults per sticky trap (±standard deviation) after 24 hours ([5]; August 4 second year): 4.0 ± 2.2^ab per sticky trap
Mean number of SCR adults per sticky trap (±standard deviation) after 24 hours ([5]; August 5 first year): 6.5 ± 3.0^a per sticky trap
Mean number of WCR adults per sticky trap (±standard deviation) after 24 hours ([3]; August 4 second year): 196.0 ± 145.3^de per sticky trap
Mean number of WCR adults per sticky trap (±standard deviation) after 24 hours ([3]; August 5 first year): 59.0 ± 32.1^d per sticky trap

COCc1ccc(OC)cc1 [V, 4-methoxy benzyl methyl ether]
Relative percent activity as compared with the highest mean in the column (WCR) ([3]; August 29): 32%
Mean number of WCR per sticky trap (±standard deviation) after 24 hours ([3]; August 29): 46.7 ± 29.6 per sticky trap
Relative percent activity as compared with the highest mean in the column (WCR) ([3]; July 30): 46%
Mean number of WCR per sticky trap (±standard deviation) after 24 hours ([3]; July 30): 37.7 ± 23.4 per sticky trap

COc1ccc(CC#N)cc1 [VII, 4-methoxyphenyl acetonitrile]
Relative percent activity as compared with the highest mean in the column (WCR) ([3]; August 29): 78%
Mean number of WCR per sticky trap (±standard deviation) after 24 hours ([3]; August 29): 114.5 ± 83.4 per sticky trap
Relative percent activity as compared with the highest mean in the column (WCR) ([3]; July 30): 46%
Mean number of WCR per sticky trap (±standard deviation) after 24 hours ([3]; July 30): 37.5 ± 8.4 per sticky trap

C=CCc1ccccc1 [VIII, allylbenzene]
Mean number of SCR adults per sticky trap (±standard deviation) after 24 hours ([5]; August 4 second year): 12.4 ± 7.2^b per sticky trap
Mean number of SCR adults per sticky trap (±standard deviation) after 24 hours ([5]; August 5 first year): 24.7 ± 16.9^a per sticky trap
Mean number of WCR adults per sticky trap (±standard deviation) after 24 hours ([3]; August 4 second year): 10.0 ± 1.4^a per sticky trap
Mean number of WCR adults per sticky trap (±standard deviation) after 24 hours ([3]; August 5 first year): 1.0 ± 0.8^a per sticky trap

COc1ccccc1C=CC=O [XIII, 2-methoxycinnamaldehyde]
Mean number of SCR adults per sticky trap (±standard deviation) after 24 hours ([5]; August 4 second year): 12.2 ± 9.9^b per sticky trap
Mean number of WCR adults per sticky trap (±standard deviation) after 24 hours ([3]; August 4 second year): 53.0 ± 14.7^c per sticky trap

COc1ccc(C=CC(C)=O)cc1 [XVI, 4-(4′-methoxyphenyl)-3-butene-2-one]
Mean number of SCR adults per sticky trap (±standard deviation) after 24 hours ([5]; September 11): 1.0 ± 0.8^a per sticky trap
Mean number of WCR adults per sticky trap (±standard deviation) after 24 hours ([3]; September 11): 2.0 ± 3.7^a per sticky trap

CC(=O)C=Cc1ccccc1 [XVII, phenyl-3-butone-2-one ketone]
Mean number of SCR adults per sticky trap (±standard deviation) after 24 hours ([5]; September 11): 5.0 ± 3.7^b per sticky trap
Mean number of WCR adults per sticky trap (±standard deviation) after 24 hours ([3]; September 11): 0.0 per sticky trap

NCc1ccccc1 [benzylamine]
Mean number of NCR per trap (± standard deviation) [1]: 57.5 ± 29.6b* per trap

NCCCCc1ccccc1 [phenylbutylamine]
Mean number of NCR per trap (± standard deviation) [1]: 12.2 ± 6.1a per trap

NCCc1ccccc1 [phenylethylamine]
Mean number of NCR per trap (± standard deviation) [1]: 206.7 ± 32.3d per trap
Mean number (control subtracted) of NCR per trap ([1]; day 1 after single 100 mg dosage on cotton wick): 85.9 per trap
Mean number (control subtracted) of NCR per trap ([1]; day 2 after single 100 mg dosage on cotton wick): 125.3 per trap
Mean number (control subtracted) of NCR per trap ([1]; day 3 after single 100 mg dosage on cotton wick): 39.4 per trap
Mean number (control subtracted) of NCR per trap ([1]; day 4 after single 100 mg dosage on cotton wick): 27.5 per trap
Mean number (control subtracted) of NCR per trap ([1]; day 5 after single 100 mg dosage on cotton wick): 155.4 per trap
Mean number (control subtracted) of NCR per trap ([1]; day 6 after single 100 mg dosage on cotton wick): 44.2 per trap
Mean number (control subtracted) of NCR per trap ([1]; day 7 after single 100 mg dosage on cotton wick): 38.4 per trap
Mean number (control subtracted) of NCR per trap ([1]; day 8 after single 100 mg dosage on cotton wick): 17.5 per trap
Mean number (control subtracted) of NCR per trap ([1]; day 11 after single 100 mg dosage on cotton wick): 3.8 per trap

NCCCc1ccccc1 [phenylpropylamine]
Mean number of NCR per trap (± standard deviation) [1]: 131.5 ± 16.5c per trap
